Where two headings read alike, the source gives them in different places. Blank lines part the entries; values can stand above or below the compound they belong to.
How the values were obtained:
PPARγ = biological target: T1, PPARγ (Homo sapiens, UniProt P37231); assay: partial agonism on PPARγ (Example 8, FIG. 6); format: cell-based
T1 sequence (P37231 1-505): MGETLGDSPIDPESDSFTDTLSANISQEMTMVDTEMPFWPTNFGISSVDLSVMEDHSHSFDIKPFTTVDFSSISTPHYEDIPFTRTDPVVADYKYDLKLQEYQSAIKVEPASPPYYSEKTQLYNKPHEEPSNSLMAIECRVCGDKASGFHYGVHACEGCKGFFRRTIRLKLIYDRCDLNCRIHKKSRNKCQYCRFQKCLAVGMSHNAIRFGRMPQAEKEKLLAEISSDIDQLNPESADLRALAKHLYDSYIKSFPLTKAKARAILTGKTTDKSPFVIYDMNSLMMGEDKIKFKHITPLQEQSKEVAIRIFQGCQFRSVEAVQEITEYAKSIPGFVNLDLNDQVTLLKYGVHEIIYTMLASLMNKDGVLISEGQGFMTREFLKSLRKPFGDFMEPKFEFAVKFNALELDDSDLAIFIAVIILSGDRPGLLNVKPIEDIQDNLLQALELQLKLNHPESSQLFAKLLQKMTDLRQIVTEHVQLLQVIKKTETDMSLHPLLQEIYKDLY
Text: Expression of reporter genes in response to compounds identified as binders of PPARγ may also be used to measure PPARγ activation. PPARγ may be co-transfected with reporter genes known in the art such as, for example, luciferase, β-galactosidase, alkaline phosphatase, fluorescent green protein, or chloramphenicol acetyltransferase. The transfected cells can be exposed to appropriate concentrations of candidate compounds with rosiglitazone as a positive control. Reporter gene expression will be induced by compounds that bind and activate PPARγ. Thus, compounds that induce reporter gene expression can be identified as activators of PPARγ (Forman, et al. (1997) PNAS 94:4312). Preferably the compounds induce reporter gene expression at levels at least 5-10 fold, more preferably 10-100 fold, more preferably 100-500 fold, more preferably 500-1000 fold, most preferably greater than 1000 fold greater than the negative control.
Example 8 illustrates the partial agonism of the (−) isomer of either halofenic acid or halofenate on PPARγ (see, FIG. 6).

C57BL/6j ob/ob Mice = assay: glucose lowering activity of halofenate analogs in C57BL/6J ob/ob mice (Example 14); format: in vivo
Procedure: Male, 8-9 weeks old, C57BL/6J ob/ob mice were purchased from The Jackson Laboratory (Bar Harbor, Me., USA). Animals were housed (4-5 mice/cage) under standard laboratory conditions at 22±3° C. temperature and 50±20% relative humidity, and were maintained on a diet of Purina rodent chow and water ad libitum. Prior to treatment, blood was collected from the tail vein of each animal. Mice that had non-fasting plasma glucose levels between 250 and 500 mg/dl were used. Each treatment group consisted of 8-10 mice that were distributed so that the mean glucose levels were equivalent in each group at the start of the study. Mice were dosed orally by gavage once a day for 1-3 days with either vehicle, (−) halofenic acid, (±) analog 14, 29, 33, 34, 35, 36, 37, or 38 at 125 mg/kg or (−) analog 29, 36, 37 or 38 at 150 mg/kg. compounds were delivered in a liquid formulation containing 5% (v/v) dimethyl sulfoxide (DMSO), 1% (v/v) tween 80 and 0.9% (w/v) methylcellulose. The gavage volume was 10 ml/kg. Blood samples were taken at 6 hours after the each dose and analyzed for plasma glucose. Food intake and body weight were measured daily. Plasma glucose concentrations were determined calorimetrically using glucose oxidase method (Sigma Chemical Co, St. Louis, Mo., USA). Significant difference between groups (comparing drug-treated to vehicle-treated) was evaluated using the Student unpaired t-test.

cytochrome P450 2C9 = cytochrome P450 2C9 (Homo sapiens, UniProt P11712); settings: cited from earlier work
Sequence of cytochrome P450 2C9 (P11712 whole entry): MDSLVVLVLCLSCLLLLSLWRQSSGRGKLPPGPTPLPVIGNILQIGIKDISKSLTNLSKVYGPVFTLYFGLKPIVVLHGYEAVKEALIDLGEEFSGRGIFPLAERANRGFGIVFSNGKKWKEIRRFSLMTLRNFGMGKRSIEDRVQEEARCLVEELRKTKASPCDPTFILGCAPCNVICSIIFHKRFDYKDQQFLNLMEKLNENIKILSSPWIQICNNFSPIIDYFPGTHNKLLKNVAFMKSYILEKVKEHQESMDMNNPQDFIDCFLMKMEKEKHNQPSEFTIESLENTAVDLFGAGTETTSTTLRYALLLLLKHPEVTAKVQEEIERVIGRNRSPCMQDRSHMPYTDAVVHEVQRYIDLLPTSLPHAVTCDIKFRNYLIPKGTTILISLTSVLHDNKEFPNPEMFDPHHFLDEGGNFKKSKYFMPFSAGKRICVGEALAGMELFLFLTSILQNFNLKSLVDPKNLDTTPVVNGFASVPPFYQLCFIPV

[1] = system: type 2 diabetics with inadequate control on insulin; assay: randomized, double-blind, placebo-controlled, multi-centre studies on type 2 diabetics with inadequate control on insulin; format: in vivo, human
Text: Example 9 presents the results of two randomized, double-blind, placebo-controlled, multi-centre studies on type 2 diabetics with inadequate control on insulin. […] Both studies were about 4 months long, with a stabilization/run in period for 2 to 4 weeks and a 3 month treatment period. Endpoints included fasting plasma glucose (FPG), HbA1c, weight, and the incidence of edema.

[2] = system: human subjects also receiving glyburide; assay: 14 days of treatment in human subjects also receiving glyburide (FIG. 19, 20); format: in vivo; settings: after 14 days of treatment
Text: The data for pioglitazone (Actos) is taken from Goldberg R B et al., Diabetes Care 28(7):1547-54 (2005), which is incorporated herein by reference.

rats = assay: separate animal studies: heart weight or fluid accumulation; format: in vivo; settings: therapeutically relevant doses, data not shown
monkeys = assay: as above; format: in vivo; settings: therapeutically relevant doses, data not shown
[3] = (−) analogs, single dose 150 mg/kg
[4] = 125 mg/kg oral gavage once a day

kind of PPARγ agonism (PPARγ): partial PPARγ agonists
SMILES: O=C(O)C(Oc1ccc(Cl)cc1-n1nc2ccccc2n1)c1ccccc1 (racemic) [Formula V]

SMILES: CC(=O)NCCOC(=O)C(Oc1cccc(C(F)(F)F)c1)c1ccc(Br)cc1 (single isomer, unassigned; (-)) [(−)Analog 29]
plasma glucose concentrations vs vehicle (in words) (C57BL/6j ob/ob Mice; [3]): significantly reduced plasma glucose concentrations at 6 hours

SMILES: CN(C)CCOC(=O)C(Oc1cccc(C(F)(F)F)c1)c1ccc(Cl)cc1 (racemic) [(±)Analog 35]
plasma glucose concentrations vs vehicle (in words) (C57BL/6j ob/ob Mice; [4]): significantly lowered plasma glucose concentrations at 30 and 54 hours

SMILES: CN(C)C(=O)COC(=O)C(Oc1cccc(C(F)(F)F)c1)c1ccc(Cl)cc1 (racemic) [(±)Analog 38]
plasma glucose concentrations vs vehicle (in words) (C57BL/6j ob/ob Mice; [4]): significantly lowered plasma glucose concentrations at 6, 30 and 54 hours

kind of PPARγ agonism (PPARγ): partial agonist | ability to induce PPARγ expression (PPARγ; FIG. 6): a few fold | antagonizing the agonist activity of rosiglitazone (PPARγ; FIG. 6): significantly antagonizing
SMILES: O=C(O)C(Oc1cccc(C(F)(F)F)c1)c1ccc(Cl)cc1 (single isomer, unassigned; (-)) [(−)halofenic acid, (−) (3-trifluoromethylphenoxy) (4-chlorophenyl)acetic acid]
plasma glucose concentrations vs vehicle (in words) (C57BL/6j ob/ob Mice; [4]): significantly reduced plasma glucose concentrations at 6 hours | inhibition of cytochrome P450 2C9 (cytochrome P450 2C9; listed as (−) enantiomer of halofenic acid): about twenty-fold less active

SMILES: CC(=O)NCCOC(=O)C(Oc1cccc(C(F)(F)F)c1)c1ccc(Br)cc1 (racemic) [(±)Analog 29]
plasma glucose concentrations vs vehicle (in words) (C57BL/6j ob/ob Mice; [4]): significantly lowered plasma glucose concentrations at 6, 30 and 54 hours

SMILES: NC(=O)COC(=O)C(Oc1cccc(C(F)(F)F)c1)c1ccc(Cl)cc1 (single isomer, unassigned; (-)) [(−)Analog 37]
plasma glucose concentrations vs vehicle (in words) (C57BL/6j ob/ob Mice; [3]): significantly reduced plasma glucose concentrations at 6 hours

SMILES: O=C(O)C(Oc1cccc(C(F)(F)F)c1)c1ccc(Cl)cc1 (single isomer, unassigned; (+)) [(+) enantiomer of halofenic acid, (+) 4-chlorophenyl-(3-trifluoromethylphenoxy)-acetic acid]
inhibition of cytochrome P450 2C9 (cytochrome P450 2C9): quite potent

kind of PPARγ agonism (PPARγ): partial PPARγ agonists
SMILES: O=C(O)C(Oc1cccc(C(F)(F)F)c1)c1ccc(Cl)cc1 (racemic) [racemic halofenic acid, 4-Chlorophenyl-(3-trifluoromethylphenoxy)-acetic Acid, reference compound]
inhibition of cytochrome P450 2C9 (cytochrome P450 2C9): found to inhibit

SMILES: CCCCOC(=O)C(Oc1cccc(C(F)(F)F)c1)c1ccc(Cl)cc1 (racemic) [(±)Analog 33]
plasma glucose concentrations vs vehicle (in words) (C57BL/6j ob/ob Mice; [4]): significantly lowered plasma glucose concentrations at 6 and 54 hours

SMILES: O=C(NCCOC(=O)C(Oc1cccc(C(F)(F)F)c1)c1ccc(Cl)cc1)c1ccccc1 (single isomer, unassigned; (-)) [(−)Analog 36]
plasma glucose concentrations vs vehicle (in words) (C57BL/6j ob/ob Mice; [3]): significantly reduced plasma glucose concentrations at 6 hours

SMILES: CC(=O)NCCOC(=O)C(Oc1cccc(C(F)(F)F)c1)c1ccc(F)cc1 (racemic) [(±)Analog 14]
plasma glucose concentrations vs vehicle (in words) (C57BL/6j ob/ob Mice; [4]): significantly lowered plasma glucose concentrations at 6, 30 and 54 hours

SMILES: NC(=O)COC(=O)C(Oc1cccc(C(F)(F)F)c1)c1ccc(Cl)cc1 (racemic) [(±)Analog 37]
plasma glucose concentrations vs vehicle (in words) (C57BL/6j ob/ob Mice; [4]): significantly lowered plasma glucose concentrations at 54 hours

SMILES: O=C(NCCOC(=O)C(Oc1cccc(C(F)(F)F)c1)c1ccc(Cl)cc1)c1ccccc1 (racemic) [(±)Analog 36]
plasma glucose concentrations vs vehicle (in words) (C57BL/6j ob/ob Mice; [4]): significantly lowered plasma glucose concentrations at 30 and 54 hours

SMILES: CN(C)C(=O)COC(=O)C(Oc1cccc(C(F)(F)F)c1)c1ccc(Cl)cc1 (single isomer, unassigned; (-)) [(−)Analog 38]
plasma glucose concentrations vs vehicle (in words) (C57BL/6j ob/ob Mice; [3]): significantly reduced plasma glucose concentrations at 6 hours

SMILES: CC(=O)NCCOC(=O)C(Oc1cccc(C(F)(F)F)c1)c1ccc(Cl)cc1 (single isomer, unassigned; (-)) [(−) halofenate, (−) 2-acetamidoethyl 4-chlorophenyl-(3-trifluoromethylphenoxy)acetate]
plasma glucose levels as judged by HbA1c levels compared to placebo group ([1]; 600 mg, analysis removing sites 60 and 70, FIG. 13): lowered | fasting plasma glucose levels compared to placebo group ([1]; 600 mg, sites 60 and 70 removed, FIG. 14, even greater extent than the 400 mg dose): lowered | plasma glucose levels as judged by HbA1c levels compared to placebo group ([1]; 200- and 400 mg, sites 60 and 70 removed, FIG. 15): lowered | fasting plasma glucose levels compared to placebo group ([1]; 200- and 400 mg, sites 60 and 70 removed, FIG. 16): lowered | anti-edema activity ([1]; Phase II clinical trial): had anti-edema activity of its own | side effects: hepatoxicity, edema, heart failure, increased weight gain ([1]; Phase II clinical trial): largely free | adverse effects on selected parameters of upper GI tract, liver, blood, kidney ([1]; data not shown): not associated with an excess of adverse effects | effect on the HDL/cholesterol profile ([1]; data not shown): neutral effect | serum triglycerides ([1]; data not shown): lowered serum triglycerides substantially | weight gain compared to placebo group ([1]; dose of 600 mg, FIG. 18): did not induce weight gain | incidence of edema formation compared to combined placebo groups ([1]; dose range of 200- to 600 mg, both studies, FIG. 17): did not increase the incidence of edema formation | edema formation compared to placebo groups ([1]; doses of 200- and 400 mg, FIG. 9): prevented edema formation | weight gain compared to placebo group ([1]; doses of 200- and 400 mg, FIG. 10): did not induce weight gain | Discontinued due to AE, patients (%) ([1]; first study, 200 mg group): 3 (4.1%) | Discontinued due to AE, patients (%) ([1]; first study, 400 mg group): 3 (4.3%) | fasting plasma glucose levels compared to placebo group ([1]; first study, doses of 200- and 400 mg, FIG. 7): lowered | plasma glucose levels as judged by HbA1c levels compared to placebo group ([1]; first study, doses of 200- and 400 mg, FIG. 8): lowered | Discontinued due to AE, patients (%) ([1]; second study, 600 mg group): 0 (0%) | plasma glucose levels as judged by HbA1c levels, from baseline ([1]; second study, 600 mg, FIG. 12, placebo group demonstrated a comparable response): lowered | fasting plasma glucose levels compared to placebo group ([1]; second study, dose of 600 mg, FIG. 11): lowered | blood glucose levels in patients also receiving glyburide ([2]; FIG. 19): substantially lower | hsCRP levels ([2]; FIG. 20): lower | increases in heart weight or fluid accumulation (rats): did not cause increases | kind of PPARγ agonism (PPARγ): partial agonist | antagonizing the agonist activity of rosiglitazone (PPARγ; FIG. 6): significantly antagonizing | increases in heart weight or fluid accumulation (monkeys): did not cause increases

Reference: US8288438B2, “Methods for avoiding edema in the treatment or prevention of PPARγ-responsive diseases, including cancer” (Metabolex, Inc., priority 2005, dated 2012)
